Test results taken from patent publication US8912220B2 (priority 2009, dated 2014).

target: T1, human 5-HT6 (Homo sapiens, UniProt P50406); test: cAMP agonist and antagonist mode at 5-HT6 (HTRF, 1321N1 cells); assay type: cell-based; conditions: reference agonist, used in antagonist mode
T1 construct: expressed in transfected cells
Method: For assessment of 5-HT6 activity, 1321N1 cells stably expressing human 5-HT6 were grown to ˜90% confluence in a humidified atmosphere at 37° C. with 5% CO2 in F12 nutrient mixture (Ham) containing 10% dialyzed FBS, 400 µg/ml G418, 100 U/ml penicillin, and 100 µg/ml streptomycin. Medium was removed by aspiration, cells were washed 1× with PBS, and dissociated using PBS-EDTA for […] at room temperature. Cells were then diluted with PBS and pelleted by centrifugation for […] at 1000 rpm. Cells were suspended in assay buffer containing 3000 µM Ro-20-1724 (Sigma, St. Louis, Mo.), a phosphodiesterase inhibitor. Cells were seeded using a microplate dispenser at a density of 3,750 cells/well in a volume of 5 µl onto 384 well white wall/opaque bottom, small volume plates (Greiner Bio One, Monroe, N.C.).
Compound plates for cAMP assays were prepared at 8 mM in 100% DMSO and diluted in assay buffer to the appropriate test concentrations. The final in-well concentration of DMSO was 0.5%. Compounds were tested in duplicate wells using a range of twelve concentrations. […]
Homogeneous time-resolved fluorescence (HTRF) (cAMP dynamic 2 kit; Cisbio, Bedford, Mass.) was used to measure the formation of 3′,5′-cyclic adenosine monophosphate (cAMP) per the manufacturer's instructions. HTRF signal was measured at 620 and 665 nm using an EnVision Multilabel Plate Reader (PerkinElmer). […]

T1 sequence (P50406 whole entry): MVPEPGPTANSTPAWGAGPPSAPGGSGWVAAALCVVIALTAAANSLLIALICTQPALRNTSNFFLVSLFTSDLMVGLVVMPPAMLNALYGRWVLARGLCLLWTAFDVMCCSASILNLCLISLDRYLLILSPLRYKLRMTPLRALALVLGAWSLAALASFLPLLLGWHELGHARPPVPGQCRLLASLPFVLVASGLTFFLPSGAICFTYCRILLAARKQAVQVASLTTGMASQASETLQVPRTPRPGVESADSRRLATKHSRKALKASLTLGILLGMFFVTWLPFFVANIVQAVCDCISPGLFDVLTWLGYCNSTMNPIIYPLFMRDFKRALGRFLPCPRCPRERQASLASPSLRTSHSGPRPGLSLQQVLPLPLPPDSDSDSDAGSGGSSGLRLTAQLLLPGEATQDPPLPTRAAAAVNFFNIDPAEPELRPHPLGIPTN

Compound	EC80 of 5-HT [nM]
NCCc1c[nH]c2ccc(O)cc12 [5-HT, 5-hydroxytryptamine]	15

target: human 5-HT2C(VSV) (Homo sapiens, UniProt P28335, I156V/I160V/N158S); test: cell-based; conditions: not given
Sequence (P28335 33-458 I156V/N158S/I160V limits assumed): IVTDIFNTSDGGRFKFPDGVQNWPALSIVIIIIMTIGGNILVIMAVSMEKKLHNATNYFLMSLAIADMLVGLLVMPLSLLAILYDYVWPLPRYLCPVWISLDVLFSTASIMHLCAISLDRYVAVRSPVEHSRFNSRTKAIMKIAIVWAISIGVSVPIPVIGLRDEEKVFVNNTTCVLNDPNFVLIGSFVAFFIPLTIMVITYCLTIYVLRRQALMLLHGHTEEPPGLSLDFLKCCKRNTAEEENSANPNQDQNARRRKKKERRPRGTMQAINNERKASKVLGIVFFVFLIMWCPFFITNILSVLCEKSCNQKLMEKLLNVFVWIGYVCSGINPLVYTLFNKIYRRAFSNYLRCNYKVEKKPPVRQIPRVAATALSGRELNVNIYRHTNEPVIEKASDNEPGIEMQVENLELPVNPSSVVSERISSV

Compound	EC50 [nM]
CCn1cc(CCN(C)Cc2ccccc2)c2c(OCc3ccccc3)cc(F)cc21 [31-6, N-benzyl-2-(4-(benzyloxy)-1-ethyl-6-fluoro-1H-indol-3-yl)-N-methylethanamine]	1 to 500
COc1ccc(S(=O)(=O)c2ccccc2)c2c1c(CCN(C)C)cn2C [25-1, 2-(4-methoxy-1-methyl-7-(phenylsulfonyl)-1H-indol-3-yl)-N,N-dimethylethanamine]	1 to 500
CCn1cc(CCN2C[C@@H](C)O[C@@H](C)C2)c2c(O)cc(F)cc21 [11-13]	500 to 10000
CNCCc1cn(C)c2ccc(F)c(OCc3ccccc3F)c12 [33-24, 2-(5-fluoro-4-(2-fluorobenzyloxy)-1-methyl-1H-indol-3-yl)-N-methylethanamine]	1 to 500
CCOc1c(F)ccc2c1c(CCNCc1ccccc1C(F)(F)F)cn2C [30-21, 2-(4-ethoxy-5-fluoro-1-methyl-1H-indol-3-yl)-N-(2-(trifluoromethyl)benzyl)ethanamine]	1 to 500
CN(C)CCc1cn(Cc2cccs2)c2c(F)ccc(OCc3ccccc3)c12 [7-4, 2-(4-(benzyloxy)-7-fluoro-1-(thiophen-2-ylmethyl)-1H-indol-3-yl)-N,N-dimethylethanamine]	1 to 500
CNCCc1cn(C)c2ccc(F)c(OCCc3ccc(OC)cc3)c12 [33-25, 2-(5-fluoro-4-(4-methoxyphenethoxy)-1-methyl-1H-indol-3-yl)-N-methylethanamine]	1 to 500
CCOc1c(F)ccc2c1c(CCNCc1ccc3c(c1)OCO3)cn2C [30-18, N-(benzo[d][1,3]dioxol-5-ylmethyl)-2-(4-ethoxy-5-fluoro-1-methyl-1H-indol-3-yl)ethanamine]	1 to 500
CCn1cc(CCNCCOC)c2c(O)cc(F)cc21 [11-11, 1-ethyl-6-fluoro-3-(2-(2-methoxyethylamino)ethyl)-1H-inol-4-ol]	1 to 500
CNCCc1cn(C)c2ccc(F)c(OCc3cc(F)ccc3C)c12 [33-33, 2-(5-fluoro-4-(5-fluoro-2-methylbenzyloxy)-1-methyl-1H-indol-3-yl)-N-methylethanamine]	1 to 500
CCn1cc(CCNCc2cccc(Cl)c2)c2c(O)cc(F)cc21 [31-11, 3-(2-(3-chlorobenzylamino)ethyl)-1-ethyl-6-fluoro-1H-indol-4-ol]	1 to 500
COc1ccc(-c2cccs2)c2c1c(CCN(C)C)cn2C [6-7, 2-(4-methoxy-1-methyl-7-(thiophen-2-yl)-1H-indol-3-yl)-N,N-dimethylethanamine]	500 to 10000
CCOc1c(F)ccc2c1c(CCNCCc1ccccc1)cn2C [30-25, 2-(4-ethoxy-5-fluoro-1-methyl-1H-indol-3-yl)-N-phenethylethanamine]	1 to 500
COc1c(F)ccc2c1c(CCNC(CO)c1ccccc1)cn2C (stereo not drawn) [34-9, 2-(2-(5-fluoro-4-methoxy-1-methyl-1H-indol-3-yl)ethylamino)-2-phenylethanol]	1 to 500
NCCc1cn(CC2COc3ccccc3O2)c2ccc(F)c(O)c12 (stereo not drawn) [19-5, 3-(2-aminoethyl)-1-((2,3-dihydrobenzo[b][1,4]dioxin-2-yl)methyl)-5-fluoro-1H-indol-4-ol]	1 to 500
CCn1cc(CCN(C)C)c2c(OCc3ccccc3C(F)(F)F)cc(F)cc21 [1-13b, 2-(1-ethyl-6-fluoro-4-(2-(trifluoromethyl)benzyloxy)-1H-indol-3-yl)-N,N-dimethylethanamine]	500 to 10000
CCn1cc(CCN(C)C)c2c(OCc3ccc(F)cc3)cc(F)cc21 [1-14b, 2-(1-ethyl-6-fluoro-4-(4-fluorobenzyloxy)-1H-indol-3-yl)-N,N-dimethylethanamine]	1 to 500
